Assay results from patent publication US6013666A, “Oxirane carboxylic acid derivative and its manufacturing method” (Jew; Sang Sup, priority 1996, dated 2000).

Legend:
Mature rats = test: Acute toxicity test on rats, oral; type: in vivo; details: rats
Procedure: (§1) The acute toxicity tests on rats were performed using the compound prepared by the procedure of the Example 1. Mature rats weighing 200-250 g were orally given the compound of the Example 1 dissolved in ethylacetate in parallel with its gradually increasing concentration.

[1] = Acute toxicity test on rats, oral; type: in vivo; details: rat, in vivo, rats 200-250 g, dissolved in ethylacetate, calculated by number of killed animals
Procedure: as §1

[2] = tested on: male diabetes-induced Sprague-Dawley rats; test: Blood glucose lowering effects on streptozotocin diabetes-induced rats; type: in vivo; details: Rattus norvegicus; STZ diabetes-induced rats, 50 mg/kg oral; measured at 90, 120 and 180 mins, smallest values taken; read-out: Blood glucose lowering rate %
Procedure: Blood Glucose Lowering Effects of the Compounds Prepared by the Procedures of Example 1~6, 11~18
Two groups of male diabetes-induced Sprague-Dawley rats (each of 4-5 rats weighing about 250 g) were used for this experiment. 45 mg/kg of streptozotocin (STZ) dissolved in 0.1M citrate buffer (pH 4.5, 0-4° C.) was injected to the tail vein of fasted rats for 1 day. After elapse of 7 days, their blood glucose concentration were measured and animals having the blood serum concentration of more than 350 mg/dl were used as diabetes-induced rats for this experiment. The rats were intravenously administered at a daily dose of 1 ml/kg, while the normal control group received equal volume of 0.1M citrate buffer.
7 days after being treated with streptozotocin, diabetes-induced rats were orally administered at a dose of 50 mg/kg of the compounds prepared by the procedures of Examples 1-6, 11~18. Then, at time intervals of 90 mins, 120 mins and 180 mins, their blood glucose concentrations were measured and the smallest values were taken. The compounds of […] were dissolved in 30% ethanol until its final concentration became 2 ml/kg, while the control group was orally received equal volume of 30% ethanol.
Significant difference between two groups was determined by ANOVA test, together with a post hoc test using Newman-Keuls test.

[3] = phase II clinical trials; cited from earlier work

CCOC(=O)C1(CCCCCCOC(=O)c2ccc(Cl)cc2)CO1 (stereo not drawn) [Example 1, Ethyl-2-[6-(4-chlorophenylcarboxyl)hexyl]-oxirane-2-carboxylic acid]
number of killed animals/number of animals per group (Mature rats; dose 160 mg/kg): 0/10 | number of killed animals/number of animals per group (Mature rats; dose 300 mg/kg): 1/10 | number of killed animals/number of animals per group (Mature rats; dose 400 mg/kg): 2/10 | number of killed animals/number of animals per group (Mature rats; dose 500 mg/kg): 5/10 | number of killed animals/number of animals per group (Mature rats; dose 600 mg/kg): 8/10 | LD50 [1]: 487 mg/kg | inhibition in vivo at 50 mg/kg [2]: 11.8%

CCOC(=O)C1(CCCCCCOC(=O)c2cnc(C)cn2)CO1 (stereo not drawn) [Example 2, Ethyl-2-[6-(5-methyl-2-pyrazincarboxyl)hexyl]-oxirane-2-carboxylic acid]
inhibition in vivo at 50 mg/kg [2]: 28.2%

CCOC(=O)C1(CCCCCCOC(=O)c2cncc(Br)c2)CO1 (stereo not drawn) [Example 3, Ethyl-2-[6-(5-bromo-3-pyridincarboxyl)hexyl]-oxirane-2-carboxylic acid]
inhibition in vivo at 50 mg/kg [2]: 8.1%

CCOC(=O)C1(CCCCCCOC(=O)c2ccc(OC)nc2OC)CO1 (stereo not drawn) [Example 4, Ethyl-2-[6-(2,6-dimethoxy-5-pyridincarboxyl)hexyl]-oxirane-2-carboxylic acid]
inhibition in vivo at 50 mg/kg [2]: 21.6%

CCOC(=O)C1(CCCCCCOC(=O)c2cccs2)CO1 (stereo not drawn) [Example 5, Ethyl-2-[6-(2-thiophenecarboxyl)hexyl]-oxirane-2-carboxylic acid]
inhibition in vivo at 50 mg/kg [2]: 16.8%

CCOC(=O)C1(CCCCCCOC(=O)c2cnccn2)CO1 (stereo not drawn) [Example 6, Ethyl-2-[6-(2-pyrazincarboxyl)hexyl]-oxirane-2-carboxylic acid]
inhibition in vivo at 50 mg/kg [2]: 24.1%

CCOC(=O)C1(CCCCCCOCc2cccs2)CO1 (stereo not drawn) [Example 11, Ethyl-2-[6-(2-thiophenemethoxy)hexyl]oxirane-2-carboxylic acid]
inhibition in vivo at 50 mg/kg [2]: 75.9%

CCOC(=O)C1(CCCCCCn2nc(C)cc2C)CO1 (stereo not drawn) [Example 12, Ethyl-2-[6-(3,5-dimethylpyrazole)hexyl]oxirane-2-carboxylic acid]
inhibition in vivo at 50 mg/kg [2]: 47%

CCOC(=O)C1(CCCCCCOCc2ccc(OC)s2)CO1 (stereo not drawn) [Example 13, Ethyl-2-[6-(5-methoxy-2-thiophenemethoxy)hexyl]oxirane-2-carboxylic acid]
inhibition in vivo at 50 mg/kg [2]: 5.9%

CCOC(=O)C1(CCCCCCOCc2ccc(C)s2)CO1 (stereo not drawn) [Example 14, Ethyl-2-[6-(5-methyl-2-thiophenemethoxy)hexyl]oxirane-2-carboxylic acid]
inhibition in vivo at 50 mg/kg [2]: 33.7%

CCOC(=O)C1(CCCCCCOCc2ccc(C)o2)CO1 (stereo not drawn) [Example 15, Ethyl-2-[6-(5-methyl-2-furanmethoxy)hexyl]oxirane-2-carboxylic acid]
inhibition in vivo at 50 mg/kg [2]: 6.8%

CCOC(=O)C1(CCCCCCOCCc2cccs2)CO1 (stereo not drawn) [Example 16, Ethyl-2-[6-(2-thiophenethoxy)hexyl]oxirane-2-carboxylic acid]
inhibition in vivo at 50 mg/kg [2]: 5.6%

CCOC(=O)C1(CCCCCCOCc2ccc(Cl)s2)CO1 (stereo not drawn) [Example 17, Ethyl-2-[6-(5-chloro-2-thiophenemethoxy)hexyl]oxirane-2-carboxylic acid]
inhibition in vivo at 50 mg/kg [2]: 19.2%

CCOC(=O)C1(CCCCCCOCc2sccc2Cl)CO1 (stereo not drawn) [Example 18, Ethyl-2-[6-(3-chloro-2-thiophenemethoxy)hexyl]oxirane-2-carboxylic acid]
inhibition in vivo at 50 mg/kg [2]: 30.7%

CCOC(=O)[C@@]1(CCCCCCOc2ccc(Cl)cc2)CO1 [etomoxir]
side effects associated with prolonged administration [3]: enlarged heart and toxicity in the liver
